Where two headings read alike, the source gives them in different places.
Key:
[1] = molecular target: JAK1 (Homo sapiens (Human), UniProt P23458); assay: pSTAT3 Cell Assay (MSD, TF1 cells); assay type: cell-based; conditions: IL-6 stimulated
Procedure, shortened: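 Serum starvation, 1 h compound (10 pt, 4-fold from 10 μM), IL-6 15 min, lysis. pSTAT3 read by MSD immunoassay, anti-STAT3 Abs. Normalized % activity vs log[cpd], 4-PL fit → IC50.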

[2] = molecular target: JH2 domain of human Tyk2 (Homo sapiens (Human), UniProt P29597); assay: JH2 Biochemical Assay (TR-FRET probe displacement); assay type: binding
Chain of JH2 domain of human Tyk2 (P29597 575-876): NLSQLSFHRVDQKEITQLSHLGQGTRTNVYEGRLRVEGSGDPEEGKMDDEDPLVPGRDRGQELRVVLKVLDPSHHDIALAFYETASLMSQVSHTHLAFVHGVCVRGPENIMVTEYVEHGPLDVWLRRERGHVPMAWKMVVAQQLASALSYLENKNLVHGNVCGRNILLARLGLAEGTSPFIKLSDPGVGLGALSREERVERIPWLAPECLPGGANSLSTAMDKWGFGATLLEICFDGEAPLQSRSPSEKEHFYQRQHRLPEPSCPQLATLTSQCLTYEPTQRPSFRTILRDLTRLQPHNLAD

[3] = molecular target: JAK2 (Homo sapiens (Human), UniProt O60674); assay: pSTAT5 Cell Assay (MSD, TF1 cells); assay type: cell-based; conditions: IL-3 stimulated
Chain of JAK2 (O60674 whole entry): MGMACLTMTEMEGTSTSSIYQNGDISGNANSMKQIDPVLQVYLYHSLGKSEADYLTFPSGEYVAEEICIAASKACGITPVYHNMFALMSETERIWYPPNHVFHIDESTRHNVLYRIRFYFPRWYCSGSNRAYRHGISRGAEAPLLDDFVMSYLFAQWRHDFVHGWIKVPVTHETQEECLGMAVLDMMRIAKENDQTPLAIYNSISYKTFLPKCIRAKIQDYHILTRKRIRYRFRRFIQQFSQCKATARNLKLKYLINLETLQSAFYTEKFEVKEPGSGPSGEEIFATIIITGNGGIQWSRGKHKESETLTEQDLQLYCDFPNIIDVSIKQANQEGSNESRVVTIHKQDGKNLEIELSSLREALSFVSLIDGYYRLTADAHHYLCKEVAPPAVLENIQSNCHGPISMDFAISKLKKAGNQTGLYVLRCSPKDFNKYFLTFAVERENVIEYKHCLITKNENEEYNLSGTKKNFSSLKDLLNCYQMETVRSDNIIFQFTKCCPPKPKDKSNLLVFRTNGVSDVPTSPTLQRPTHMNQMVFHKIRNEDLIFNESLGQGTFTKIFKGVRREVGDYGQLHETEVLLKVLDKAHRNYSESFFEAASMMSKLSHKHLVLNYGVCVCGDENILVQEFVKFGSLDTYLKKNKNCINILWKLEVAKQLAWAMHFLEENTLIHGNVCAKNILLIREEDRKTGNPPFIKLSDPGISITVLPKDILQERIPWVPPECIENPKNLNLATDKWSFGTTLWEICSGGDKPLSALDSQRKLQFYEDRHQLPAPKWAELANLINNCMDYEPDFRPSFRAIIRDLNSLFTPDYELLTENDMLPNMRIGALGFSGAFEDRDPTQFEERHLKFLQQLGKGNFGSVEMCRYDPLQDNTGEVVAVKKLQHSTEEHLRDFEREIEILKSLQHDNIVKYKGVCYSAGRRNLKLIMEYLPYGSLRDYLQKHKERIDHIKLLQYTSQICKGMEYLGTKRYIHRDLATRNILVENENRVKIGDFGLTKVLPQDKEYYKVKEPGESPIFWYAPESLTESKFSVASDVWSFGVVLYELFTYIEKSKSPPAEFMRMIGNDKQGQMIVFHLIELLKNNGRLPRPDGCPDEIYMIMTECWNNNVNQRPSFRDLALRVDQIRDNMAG
Procedure, shortened: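 Serum-starved TF1 cells were pretreated with compound for 1 h (10-point four-fold series from 10 μM), then stimulated with 30 ng/mL IL-3 for 15 min. pSTAT5 in lysates was measured by MSD immunoassay. IC50 came from a 4-parameter logistic fit.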

[4] = molecular target: Tyk2 (Homo sapiens (Human), UniProt P29597); assay: pSTAT4 Cell Assay (MSD, NK92 cells); assay type: cell-based
Chain of Tyk2 (P29597 whole entry, the tested form may be a part): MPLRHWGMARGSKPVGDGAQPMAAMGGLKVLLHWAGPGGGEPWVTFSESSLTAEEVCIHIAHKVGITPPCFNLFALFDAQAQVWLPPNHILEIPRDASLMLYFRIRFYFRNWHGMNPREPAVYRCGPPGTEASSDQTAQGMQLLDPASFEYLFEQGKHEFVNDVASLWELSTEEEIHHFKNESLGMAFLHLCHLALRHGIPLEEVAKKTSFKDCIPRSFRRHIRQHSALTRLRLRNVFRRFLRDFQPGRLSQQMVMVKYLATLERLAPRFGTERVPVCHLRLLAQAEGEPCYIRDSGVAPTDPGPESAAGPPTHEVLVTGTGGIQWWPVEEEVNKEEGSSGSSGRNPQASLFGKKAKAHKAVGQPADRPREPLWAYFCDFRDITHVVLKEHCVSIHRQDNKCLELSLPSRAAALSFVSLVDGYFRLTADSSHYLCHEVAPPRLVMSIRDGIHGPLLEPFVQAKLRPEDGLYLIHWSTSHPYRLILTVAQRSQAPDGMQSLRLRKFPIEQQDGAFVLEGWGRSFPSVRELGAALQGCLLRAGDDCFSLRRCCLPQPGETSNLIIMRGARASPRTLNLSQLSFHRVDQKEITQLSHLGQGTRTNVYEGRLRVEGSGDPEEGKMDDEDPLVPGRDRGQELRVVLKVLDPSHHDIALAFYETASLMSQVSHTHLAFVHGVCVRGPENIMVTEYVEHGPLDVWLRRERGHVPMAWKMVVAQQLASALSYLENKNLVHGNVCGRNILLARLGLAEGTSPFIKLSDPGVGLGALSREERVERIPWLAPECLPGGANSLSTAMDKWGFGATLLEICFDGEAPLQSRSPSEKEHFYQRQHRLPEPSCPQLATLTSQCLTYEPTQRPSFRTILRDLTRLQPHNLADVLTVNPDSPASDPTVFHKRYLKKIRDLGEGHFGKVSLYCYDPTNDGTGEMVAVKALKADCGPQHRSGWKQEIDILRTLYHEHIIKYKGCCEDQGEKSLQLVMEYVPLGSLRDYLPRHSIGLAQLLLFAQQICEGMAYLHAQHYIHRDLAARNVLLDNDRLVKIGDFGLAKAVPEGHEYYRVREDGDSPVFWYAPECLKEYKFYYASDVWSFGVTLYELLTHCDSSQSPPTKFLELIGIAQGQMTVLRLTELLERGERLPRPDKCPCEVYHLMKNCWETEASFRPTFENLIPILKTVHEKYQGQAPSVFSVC

[5] = JH2 domain of human Tyk2, TR-FRET probe displacement
[6] = TR-FRET probe displacement, JH2 domain

Chain of JAK1 (P23458 whole entry): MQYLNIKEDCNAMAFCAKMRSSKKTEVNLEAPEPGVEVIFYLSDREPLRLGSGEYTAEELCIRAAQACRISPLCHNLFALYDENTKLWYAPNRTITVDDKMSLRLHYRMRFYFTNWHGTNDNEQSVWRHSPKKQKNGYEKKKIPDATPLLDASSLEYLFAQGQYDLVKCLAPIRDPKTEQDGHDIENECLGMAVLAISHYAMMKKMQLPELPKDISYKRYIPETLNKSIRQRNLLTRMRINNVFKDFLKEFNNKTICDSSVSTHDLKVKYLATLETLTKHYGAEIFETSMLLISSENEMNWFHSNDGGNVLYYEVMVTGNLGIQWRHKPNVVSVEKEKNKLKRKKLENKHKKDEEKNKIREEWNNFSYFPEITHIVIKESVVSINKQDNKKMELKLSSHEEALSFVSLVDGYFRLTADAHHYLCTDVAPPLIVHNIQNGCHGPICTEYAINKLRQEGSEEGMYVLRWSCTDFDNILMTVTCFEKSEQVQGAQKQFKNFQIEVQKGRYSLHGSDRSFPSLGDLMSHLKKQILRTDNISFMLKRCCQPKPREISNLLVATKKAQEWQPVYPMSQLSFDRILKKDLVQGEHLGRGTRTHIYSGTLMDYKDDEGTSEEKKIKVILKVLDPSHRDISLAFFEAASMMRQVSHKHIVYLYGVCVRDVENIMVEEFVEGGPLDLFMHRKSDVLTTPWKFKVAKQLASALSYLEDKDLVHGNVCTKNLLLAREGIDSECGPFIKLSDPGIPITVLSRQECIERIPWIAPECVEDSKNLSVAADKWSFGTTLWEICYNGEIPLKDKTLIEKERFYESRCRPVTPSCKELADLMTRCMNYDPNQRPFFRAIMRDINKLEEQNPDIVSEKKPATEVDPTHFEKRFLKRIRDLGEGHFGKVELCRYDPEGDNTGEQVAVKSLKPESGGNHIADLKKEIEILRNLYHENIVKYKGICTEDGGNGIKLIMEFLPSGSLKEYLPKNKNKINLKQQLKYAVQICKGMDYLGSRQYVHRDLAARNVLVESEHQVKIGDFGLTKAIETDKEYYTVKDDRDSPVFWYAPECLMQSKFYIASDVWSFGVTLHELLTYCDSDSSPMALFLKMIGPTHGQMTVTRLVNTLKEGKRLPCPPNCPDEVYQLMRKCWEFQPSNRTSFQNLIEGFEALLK

Row | SMILES | IC50 ([1]; MSD) | IC50 [2, 5] | IC50 ([3]; MSD) | IC50 ([4]; MSD) | IC50 [1] | IC50 [2, 6] | IC50 [3] | IC50 [4]
1 | CC(=O)Nc1cc(Nc2cc(C)nc(C(C)(F)F)n2)c(-c2ncc(OC(F)F)cn2)cn1 [Example 660, N-(4-((2-(1,1-difluoroethyl)-6-methylpyrimidin-4-yl)amino)-5-(5-(difluoromethoxy)pyrimidin-2-yl)pyridin-2-yl)acetamide] | ≥ 1000 nM | ≤ 10 nM | ≥ 1000 nM | ≤ 10 nM | – | – | – | –
2 | COCc1nccc(-c2cnc(NC(C)=O)cc2Nc2cc(C)nc(C(C)(F)F)n2)n1 [Example 661, N-(4-((2-(1,1-difluoroethyl)-6-methylpyrimidin-4-yl)amino)-5-(2-(methoxymethyl)pyrimidin-4-yl)pyridin-2-yl)acetamide] | ≥ 1000 nM | ≤ 10 nM | ≥ 1000 nM | ≤ 10 nM | – | – | – | –
3 | CC(=O)Nc1cc(Nc2cc(C)nc(C(C)(F)F)n2)c(-c2ncccn2)cn1 [Example 668, N-(4-((2-(1,1-difluoroethyl)-6-methylpyrimidin-4-yl)amino)-5-(pyrimidin-2-yl)pyridin-2-yl)acetamide] | ≥ 1000 nM | ≤ 10 nM | ≥ 1000 nM | ≤ 10 nM | – | – | – | –
4 | COc1ccc(-c2cnc(NC(C)=O)cc2Nc2cc(C)nc(C(C)(F)F)n2)nn1 [Example 676, N-(4-((2-(1,1-difluoroethyl)-6-methylpyrimidin-4-yl)amino)-5-(6-methoxypyridazin-3-yl)pyridin-2-yl)acetamide] | ≥ 1000 nM | ≤ 10 nM | ≥ 1000 nM | ≤ 10 nM | – | – | – | –
5 | CC(=O)Nc1cc(Nc2cc(C)nc(C(C)(F)F)n2)c(-c2cn3ccnc3cn2)cn1 [Example 681, N-(4-((2-(1,1-difluoroethyl)-6-methylpyrimidin-4-yl)amino)-5-(imidazo[1,2-a]pyrazin-6-yl)pyridin-2-yl)acetamide] | ≥ 1000 nM | ≤ 10 nM | ≥ 1000 nM | ≤ 10 nM | – | – | – | –
6 | CC(=O)Nc1cc(Nc2ccnc(C(C)(F)F)n2)c(-c2cn(C)c(C#N)n2)cn1 [Example 707, N-(5-(2-cyanO1-methyl-1H-imidazol-4-yl)-4-((2-(1,1-difluoroethyl)pyrimidin-4-yl)amino)pyridin-2-yl)acetamide] | ≥ 1000 nM | ≤ 10 nM | ≥ 1000 nM | ≤ 10 nM | – | – | – | –
7 | CC(=O)Nc1cc(Nc2ccnc(C(C)(F)F)n2)c(-c2cnn(C(C)C)n2)cn1 [Example 708, N-(4-((2-(1,1-difluoroethyl)pyrimidin-4-yl)amino)-5-(2-isopropyl-2H-1,2,3-triazol-4-yl)pyridin-2-yl)acetamide] | ≥ 1000 nM | ≤ 10 nM | ≥ 1000 nM | ≤ 10 nM | – | – | – | –
8 | CC(=O)Nc1cc(Nc2ccnc(C(C)(F)F)n2)c(-c2nnc(C(C)(C)C)s2)cn1 [Example 715, N-(5-(5-(tert-butyl)-1,3,4-thiadiazol-2-yl)-4-((2-(1,1-difluoroethyl)pyrimidin-4-yl)amino)pyridin-2-yl)acetamide] | ≥ 1000 nM | ≤ 10 nM | ≥ 1000 nM | ≤ 10 nM | – | – | – | –
9 | CCc1cc(Nc2cc(NC(C)=O)ncc2-c2ncccn2)nc(C(C)(F)F)n1 [Example 719, N-(4-((2-(1,1-difluoroethyl)-6-ethylpyrimidin-4-yl)amino)-5-(pyrimidin-2-yl)pyridin-2-yl)acetamide] | ≥ 1000 nM | ≤ 10 nM | ≥ 1000 nM | ≤ 10 nM | – | – | – | –
10 | CC(=O)Nc1cc(Nc2ccnc(C(C)(F)F)n2)ccn1 [Example 724, N-(4-((2-(1,1-difluoroethyl)pyrimidin-4-yl)amino)pyridin-2-yl)acetamide] | ≥ 1000 nM | 10 to 100 nM | ≥ 1000 nM | ≥ 1000 nM | – | – | – | –
11 | COCc1cc(-c2cnc(NC(C)=O)cc2Nc2cc(C)nc(C(C)(F)F)n2)nn1C [Example 757, N-(4-((2-(1,1-difluoroethyl)-6-methylpyrimidin-4-yl)amino)-5-(5-(methoxymethyl)-1-methyl-1H-pyrazol-3-yl)pyridin-2-yl)acetamide] | – | – | – | – | 100 to 1000 nM | ≤ 10 nM | ≥ 1000 nM | ≤ 10 nM
12 | CCc1cc(Nc2cc(NC(C)=O)ncc2-c2ccncn2)nc(C(C)(F)F)n1 [Example 799, N-(4-((2-(1,1-difluoroethyl)-6-ethylpyrimidin-4-yl)amino)-5-(pyrimidin-4-yl)pyridin-2-yl)acetamide] | – | – | – | – | ≥ 1000 nM | ≤ 10 nM | ≥ 1000 nM | ≤ 10 nM
13 | CC(=O)Nc1cc(Nc2ccnc(C(C)(F)F)n2)c(-c2ncc(OC(F)F)cn2)cn1 [Example 825, N-(4-((2-(1,1-difluoroethyl)pyrimidin-4-yl)amino)-5-(5-(difluoromethoxy)pyrimidin-2-yl)pyridin-2-yl)acetamide] | – | – | – | – | ≥ 1000 nM | ≤ 10 nM | ≥ 1000 nM | 10 to 100 nM
14 | CC(=O)Nc1cc(Nc2ccnc(C(C)(F)F)n2)c(-c2ccc(OC(F)F)cn2)cn1 [Example 826, N-(4′-((2-(1,1-difluoroethyl)pyrimidin-4-yl)amino)-5-(difluoromethoxy)-[2,3′-bipyridin]-6′-yl)acetamide] | – | – | – | – | ≥ 1000 nM | ≤ 10 nM | ≥ 1000 nM | ≤ 10 nM
15 | COCc1cnc(-c2cnc(NC(C)=O)cc2Nc2cc(C)nc(C(C)(F)F)n2)cn1 [Example 834, N-(4-((2-(1,1-difluoroethyl)-6-methylpyrimidin-4-yl)amino)-5-(5-(methoxymethyl)pyrazin-2-yl)pyridin-2-yl)acetamide] | – | – | – | – | ≥ 1000 nM | ≤ 10 nM | ≥ 1000 nM | ≤ 10 nM
16 | COc1ccc(-c2cnc(NC(C)=O)cc2Nc2ccnc(C(C)(C)F)n2)nn1 [Example 835, N-(4-((2-(2-fluoropropan-2-yl)pyrimidin-4-yl)amino)-5-(6-methoxypyridazin-3-yl)pyridin-2-yl)acetamide] | – | – | – | – | ≥ 1000 nM | ≤ 10 nM | ≥ 1000 nM | ≤ 10 nM
17 | CCc1cc(Nc2cc(NC(C)=O)ncc2-c2cnc(COC)cn2)nc(C(C)(F)F)n1 [Example 836, N-(4-((2-(1,1-difluoroethyl)-6-ethylpyrimidin-4-yl)amino)-5-(5-(methoxymethyl)pyrazin-2-yl)pyridin-2-yl)acetamide] | – | – | – | – | ≥ 1000 nM | ≤ 10 nM | ≥ 1000 nM | ≤ 10 nM
18 | CCc1cc(Nc2cc(NC(C)=O)ncc2-c2ncc(C3COCCO3)cn2)nc(C(C)(F)F)n1 (stereo not drawn) [Example 840, N-(5-(5-(1,4-dioxan-2-yl)pyrimidin-2-yl)-4-((2-(1,1-difluoroethyl)-6-ethylpyrimidin-4-yl)amino)pyridin-2-yl)acetamide] | – | – | – | – | ≥ 1000 nM | ≤ 10 nM | ≥ 1000 nM | ≤ 10 nM
19 | COCc1ccc(-c2cnc(NC(C)=O)cc2Nc2ccnc(C(C)(F)F)n2)nc1 [Example 851, N-(4′-((2-(1,1-difluoroethyl)pyrimidin-4-yl)amino)-5-(methoxymethyl)-[2,3′-bipyridin]-6′-yl)acetamide] | – | – | – | – | ≥ 1000 nM | ≤ 10 nM | ≥ 1000 nM | ≤ 10 nM
20 | CC(=O)Nc1cc(Nc2ccnc(C(C)(F)F)n2)c(-c2cnc(C(C)(C)O)cn2)cn1 [Example 853, N-(4-((2-(1,1-difluoroethyl)pyrimidin-4-yl)amino)-5-(5-(2-hydroxypropan-2-yl)pyrazin-2-yl)pyridin-2-yl)acetamide] | – | – | – | – | ≥ 1000 nM | ≤ 10 nM | ≥ 1000 nM | 10 to 100 nM
21 | CCc1cc(Nc2cc(NC(N)=O)ncc2-c2cnccn2)nc(C(C)(F)F)n1 [Example 920] | – | – | – | – | ≥ 1000 nM | ≤ 10 nM | ≥ 1000 nM | ≤ 10 nM

From patent publication US20260028365A1 (BIOGEN MA INC., priority 2022, published 2026)
